The results in this text go back to the supplement of paper PMC4862054.

In test [1] the test system is MDA-MB-453. Nature of the test: normalised viability (% of control), CellTiter-Blue; higher = more viable cells (about 100 = DMSO control). The note with it: incubation time: 72 h. In outline: (§1)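 Each entry is normalised viability at a single listed concentration within a series. It comes from breast cancer cell lines incubated 72 h with compound in 384-well plates, then measured with CellTiter-Blue fluorescence at 560/590 nm. Every plate was normalised between vehicle (100) and a positive kill control (0).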
(In general: The colour change of resazurin is a common sign of viable cells or microbes.)

For test [2], the system named is CAL-85-1. The test is described as above. The following applies: incubation time: 72 h. An outline of the steps: as §1
For test [3], the system named is BT-549. The test is described as above. The following applies: incubation time: 72 h. In outline:
as §1

The subject of test [4] is MDA-MB-468. The test is described as above. The following applies: incubation time: 72 h. In outline: as §1
In the next test the test system is MCF-10A. Put plainly: drug sensitivity score (DSS), CellTiter-Glo (DSS (AUC-based score)); higher = stronger drug effect (viability inhibition or cytotoxicity); extreme values may be limits of the assay. The following applies: incubation time: 72 h. In outline:
(§2)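 Breast cancer cells were seeded into 384-well plates containing compound at 5 concentrations in 10-fold steps over a compound-specific 10,000-fold range and incubated 72 h. After CellTox Green and CellTiter-Glo readings, each plate was normalised to 0.1 % DMSO and a positive kill control. The drug sensitivity score rests on the area under the fitted dose-response curve.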

Test [5] has as its system HDQ-P1. Described as above. The note with it: incubation time: 72 h. An outline of the steps: as §2
In test [6] the test system is CAL-51. The description is as above. The note with it: incubation time: 72 h. An outline of the steps:
as §2

For test [7], the system named is SK-BR-3. The description is as above. The following applies: incubation time: 72 h. In outline:
as §2

Test [8] deals with MDA-MB-453. The description is as above. The following applies: incubation time: 72 h. An outline of the steps: as §2
The subject of test [9] is MDA-MB-436. The test is described as above. The following applies: incubation time: 72 h. An outline of the steps:
as §2

Test [10] deals with CAL-148. The test is described as above. The note with it: incubation time: 72 h. An outline of the steps:
as §2

Another test deals with HCC1599. Put plainly: normalised viability (% of control), CellTiter-Blue; higher = more viable cells (about 100 = DMSO control). The note with it: 100 nM; incubation time: 72 h. On the procedure:
(§3)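 DSRT, CellTiter-Blue viability, 72 h incubation. Signal is normalised to DMSO and benzethonium chloride controls. Value is the normalised response at dose 3.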

For test [11], the system named is HDQ-P1. The test is described as above. The following applies: 10 nM; incubation time: 72 h. On the procedure:
as §3

Test [12] relates to CAL-51. Described as above. The note with it: 10 nM; incubation time: 72 h. On the procedure: as §3
In the next test the test system is Hs578T. The description is as above. The note with it: 100 nM; incubation time: 72 h. On the procedure:
as §3

The next test has as its system DU-4475. The description is as above. The note with it: 10 nM; incubation time: 72 h. On the procedure: as §3
A further test relates to HCC1937. The description is as above. The note with it: 100 nM; incubation time: 72 h. On the procedure:
as §3

Test [13] relates to SK-BR-3. The description is as above. The following applies: 100 nM; incubation time: 72 h. On the procedure:
as §3

Test [14] has as its system MDA-MB-453. Described as above. The following applies: 10 nM; incubation time: 72 h. On the procedure:
as §3

The next test relates to MFM-223. The description is as above. The note with it: 100 nM; incubation time: 72 h. On the procedure:
as §3

In test [15] the test system is MDA-MB-436. The test is described as above. The following applies: 100 nM; incubation time: 72 h. On the procedure:
as §3

Test [16] has as its system CAL-85-1. Described as above. The note with it: 10 nM; incubation time: 72 h. On the procedure: as §3
The subject of test [17] is BT-549. Described as above. The following applies: 100 nM; incubation time: 72 h. On the procedure: as §3
A further test deals with HCC1143. Described as above. The note with it: 100 nM; incubation time: 72 h. On the procedure: as §3
Test [18] has as its system CAL-148. The test is described as above. The following applies: 10 nM; incubation time: 72 h. On the procedure: as §3
For a further test, the system named is BT-474. The test is described as above. The note with it: 100 nM; incubation time: 72 h. On the procedure:
as §3

For the next test, the system named is MDA-MB-231. The test is described as above. The note with it: 100 nM; incubation time: 72 h. On the procedure: as §3
The subject of a further test is CAL-120. Described as above. The note with it: 100 nM; incubation time: 72 h. On the procedure: as §3
The test system of test [19] is MDA-MB-468. The test is described as above. The following applies: 100 nM; incubation time: 72 h. On the procedure: as §3

For the molecule `c1ccc2c(CCNc3ccc(Nc4ccncc4)cc3)c[nH]c2c1` [Serdemetan], the normalised viability in the test with MDA-MB-453 [1] (3 nM) is 119%; in the test with MDA-MB-453 [1] (30 nM) it was 93.8%; in the test with MDA-MB-453 [1] (100 nM), 104%; in the test with CAL-85-1 [2] (3 nM), 93.3%; in the test on CAL-85-1 [2] (30 nM), 85.8%; in the test with CAL-85-1 [2] (100 nM), 84.5%. Also, the normalised viability in the test with BT-549 [3] (10 nM) worked out at 95.6%; with BT-549 [3] (1000 nM), 81.5%; in the test with BT-549 [3] (10000 nM) it was 26.5%; in the test on MDA-MB-468 [4] (10 nM), 111%; with MDA-MB-468 [4] (1000 nM), 103%; in the test on MDA-MB-468 [4] (10000 nM) it was 60.9%. The normalised viability is 136% in the test on HCC1599; 106% with HDQ-P1 [11]; 104% with CAL-51 [12]; 77.2% in the test on Hs578T; 103% in the test on DU-4475; 95.2% in the test with HCC1937. Further, the normalised viability in the test on SK-BR-3 [13] turned out to be 79.7%; in the test with MDA-MB-453 [14], 96.7%; in the test with MFM-223, 92.4%; in the test with MDA-MB-436 [15], 113%; in the test on CAL-85-1 [16] it was 102%; in the test on BT-549 [17] it was 113%. In addition, the normalised viability in the test with HCC1143 was found to be 76%; with CAL-148 [18], 83.5%; in the test with BT-474, 111%; in the test with MDA-MB-231 it was 85.8%; in the test on CAL-120 it was 81.9%; in the test on MDA-MB-468 [19] it was 108%. Further, the drug sensitivity score with MCF-10A came to 0; in the test with HDQ-P1 [5], 2.35; in the test with CAL-51 [6] it was 15.9; with SK-BR-3 [7], 6.23; with MDA-MB-453 [8], 1.37; in the test with MDA-MB-436 [9], 2.94. The molecule also came in with a drug sensitivity score in the test with CAL-148 [10] of 7.11.
Consider `CNC(=O)c1cccc(-c2ccc3c(N4CCOC[C@@H]4C)nc(N4CCOC[C@@H]4C)nc3n2)c1` [AZD2014], for which the drug sensitivity score in the test with MCF-10A turned out to be 10.3; in the test on HDQ-P1 [5] it was 14.8; with CAL-51 [6] it was 17.4; in the test with SK-BR-3 [7] it was 18.4; in the test on MDA-MB-453 [8] it was 13.5; in the test with MDA-MB-436 [9] it was 11.1. The molecule also displayed a drug sensitivity score in the test with CAL-148 [10] of 13.8.
As to `Cc1cc(Nc2cc(CN3CCOCC3)c3nc(C)c(Cc4ccc(Cl)cc4F)n3n2)n[nH]1`, the normalised viability worked out at 90.4% with MDA-MB-453 [1] (3 nM); 101% in the test on MDA-MB-453 [1] (30 nM); 82.8% in the test with MDA-MB-453 [1] (100 nM); 87.2% with CAL-85-1 [2] (3 nM); 83.3% in the test with CAL-85-1 [2] (30 nM); 93.1% in the test on CAL-85-1 [2] (100 nM). Also, the normalised viability came out at 97.8% in the test with BT-549 [3] (10 nM); 78.8% in the test on BT-549 [3] (1000 nM); 9.99% in the test on BT-549 [3] (10000 nM); 103% with MDA-MB-468 [4] (10 nM); 61.4% with MDA-MB-468 [4] (1000 nM); 7.11% with MDA-MB-468 [4] (10000 nM). The normalised viability in the test with HCC1599 came to 122%; in the test with HDQ-P1 [11], 92.8%; in the test on CAL-51 [12], 95%; in the test with Hs578T it was 85.9%; in the test on DU-4475, 99.6%; with HCC1937, 101%. The normalised viability in the test on SK-BR-3 [13] was 87.1%; with MDA-MB-453 [14], 91.1%; in the test with MFM-223, 67.9%; in the test on MDA-MB-436 [15] it was 108%; in the test with CAL-85-1 [16], 91.6%; with BT-549 [17] it was 93.5%. The normalised viability with HCC1143 was determined as 71.4%; in the test with CAL-148 [18], 97.9%; in the test on BT-474, 102%; in the test on MDA-MB-231, 102%; in the test on CAL-120 it was 74.5%; with MDA-MB-468 [19], 103%.
Turning to `CNC(=O)c1ccc(N2C(=S)N(c3ccc(C#N)c(C(F)(F)F)c3)C(=O)C2(C)C)cc1F` [Enzalutamide], the drug sensitivity score in the test with MCF-10A worked out at 0; in the test on HDQ-P1 [5], 0; with CAL-51 [6], 6.69; in the test on SK-BR-3 [7], 0; in the test with MDA-MB-453 [8] it was 0.159; with MDA-MB-436 [9], 0. In the test on CAL-148 [10], the drug sensitivity score came to 0.
